From patent publication US11166893B2, “Topical hirsutism treatment” (BMG PHARMA SRL, priority 2015, dated 2021)

System: growth of superfluous hair
Test: Inhibition of superfluous hair growth evaluated by the Trichoscan method
Format: in vivo
Conditions: 10% capryloyl glycine cream, topical, compared with eflornithine efficacy reported in Eur. J Dermatol 2008, 18 (1): 65-70
Protocol: The ability of capryloyl glycine to inhibit the growth of superfluous hair was evaluated by the Trichoscan® method (http://trichoscan.com/pages/english/professional-info/reference-values.php).

Compound: CCCCCCCC(=O)NCC(=O)O [capryloyl glycine]
- ability to inhibit the growth of superfluous hair (efficacy): efficacy comparable to that of eflornithine
